# From patent publication US6878713B2, “Generation triple-targeting, chiral, broad-spectrum antimicrobial 7-substituted piperidino-quinolone carboxylic acid derivatives, their preparation, compositions and use as medicaments” (Wockhardt Limited, priority 2001, dated 2005)
# Like-named read-outs stand apart in the source and are kept apart here.
# Experiments:
# [1] = system: Fluoroquinolone-Resistant Strains; experiment: In-vitro antimicrobial test (MIC, two-fold serial agar dilution, NCCLS), Table 18; assay type: cell-based
# Protocol: (§1) The test method was in accordance with the standard NCCLS protocol (Methods for Dilution Antimicrobial Susceptibility Tests for Bacteria that grow Aerobicially, Approved Standards, M7-A5, Fifth Edition, January 2000).
# (§2) The antibacterial activities (minimum inhibitory concentration: MIC, […]) were determined by using the two-fold serial agar dilution method recommended by NCCLS. The media used for preculture and main culture were Tryptic Soya broth (Difco) and Mueller Hinton medium (Difco), respectively. The Mueller Hinton agar was supplemented with 5% sheep blood for streptococci. Overnight cultures were diluted with buffered saline (pH 7.2) to the final cell density of 5×10^6-10^7 CFU/ml, and each bacterial suspension was applied with a replicator (Denley's multipoint inoculator, UK) onto a series of Mueller-Hinton agar plates containing antibacterial agents at various concentrations. Final inoculum was approximately 10^4 CFU/spot. The plates were incubated for 18 hrs at 37° C. The MIC was defined as the lowest concentration of an antibacterial agent that inhibits the development of visible microbial growth on agar.
# [2] = system: MRSA 5027; experiment: Resistance to resistance development (sequential passages through drug-containing media); assay type: cell-based; details: Staphylococcus aureus
# [3] = system: Multidrug-Resistant (MDR) Pneumococcal Infections; experiment: In-vivo antimicrobial test, systemic infection model (mouse septicemia), Table 22; design: species or system Swiss male and female mice; details: Streptococcus pneumoniae, po, oral dosing 1 hour and 5 hours post-infection, survival on day 7, strain resistant to β-lactams, macrolides and fluoroquinolones, read-out: ED50 p.o., MDR S. pneumoniae 718
# Protocol: The in vivo efficacy was studied through mouse septicemia model of infection in Swiss male and female mice (4 weeks old, 20+2 g weight) using 6 animals in each group. Infective organisms were inoculated intraperitonially. Compound were administered by oral route 1 hour and 5 hours post-infection. […] Appropriate comparators were included in the study.
# [4] = system: J 744 (mouse macrophage); experiment: Cytotoxicity test (Alamar blue), J 744 cells, Table 23; assay type: cell-based; details: 3 hrs drug exposure, further 96 hrs incubation
# Protocol: Compounds were evaluated for their cytotoxic potential against two celllines viz. […] Cytotoxic drugs inhibit this reaction resulting into blue coloured well. Minimum drug concentration inhibiting Alamar blue color change i.e. resulting into blue coloured wells for a given drug is considered cytotoxic concentration.
# [5] = system: V79 (Chinese Hamster Lung); experiment: Cytotoxicity test (Alamar blue), V79 cells, Table 23; assay type: cell-based; details: 3 hrs drug exposure, further 96 hrs incubation
# Protocol: Compounds were evaluated for their cytotoxic potential against two […] viz. […] Cells were grown for 3-4days in a culture flask using D-MEM (Dulbecco's Modified Eagle. […] Freshly grown cells were distributed in microtiter plates at a cell density of 10^5-10^6 cells/well and allowed to […] form monolayer by incubating the microtiter plate at […] for 24 hrs. […] Following 3 hrs. of drug exposure, cell were washed with D-MEM and incubated further for 96 hrs. Cytotoxic effects of drugs were monitored through daily microscopic observation and by ascertaining the metabolic status through redox indicator Alamar blue. Healthy actively metabolising cells bring about colour change of Alamar blue from blue to pink within an overnight incubation. Cytotoxic drugs inhibit this reaction resulting into blue coloured well. Minimum drug concentration inhibiting Alamar blue color change i.e. resulting into blue coloured wells for a given drug is considered cytotoxic concentration.
# [6] = system: Fluoroquinolone Sensitive Strains; experiment: In-vitro antimicrobial test (MIC, two-fold serial agar dilution, NCCLS), Table 17; assay type: cell-based
# Protocol: as §1, §2
# [7] = system: Trovafloxacin-Resistant and Vancomycin-Resistant Enterococci; experiment: In-vitro antimicrobial test (MIC, two-fold serial agar dilution, NCCLS), Table 19; assay type: cell-based
# Excerpt: The comparative antimicrobial activity of representative compounds, of the invention and reference compounds against various sensitive and resistant microorganisms is given in Tables 17 to 20. The test method was in accordance with the standard NCCLS protocol (Methods for Dilution Antimicrobial Susceptibility Tests for Bacteria that grow Aerobicially, Approved Standards, M7-A5, Fifth Edition, January 2000).
# as §2
# [8] = system: Clinical Isolate MRSA 5076 with Mutations in DNA Gyrase and Topoisomerase IV as well as bearing an Efflux Pump; experiment: microbe, parasite or virus in culture; assay type: cell-based; details: for MIC: Staphylococcus aureus, ATCC 25293 / MRSA, read-out: MICs, S. aureus (sensitive) ATCC 25293
# Protocol: as §1, §2
# [9] = Phototoxicity (oral dose, UVA exposure, ear erythema and oedema); assay type: in vivo; details: Swiss Albino mice, UVA 4 hours for 4 consecutive days
# Protocol: The stock solutions for different doses were prepared freshly on the day of experimentation. Appropriate concentration of each dose was chosen to give a constant dosage volume of 0.3-0.4 ml/20 g body weight of mouse. The treated mice were exposed to UVA light source immediately after dosing for 4 hours and for 4 consecutive days. The mean light intensity in the UVA chamber was adjusted to 0.9-1.2 mW/cm^2. […] A phototoxic dose is one which causes ear erythema and oeadema.
# [10] = Staphylococcus aureus, MRSA, MRSA 032
# [11] = Streptococcus pneumoniae, FQ^R S. pneumoniae 718
# [12] = read-out: MIC against MRSA 5027, initially
# [13] = read-out: MIC against MRSA 5027 after 10 passages in drug containing medium
# [14] = Enterococcus faecalis, ATCC29212, E. faecalis ATCC 29212
# [15] = Escherichia coli, ATCC25922, E. coli ATCC 25922
# [16] = Pseudomonas aeruginosa, P. aeruginosa 27853
# [17] = S. sanguis ATCC 10556 (Viridans Streptococci group)
# [18] = Staphylococcus aureus, ATCC 25923 / MSSA, MSSA ATCC 25923
# [19] = Streptococcus pneumoniae, ATCC49619, S. pneumoniae ATCC 49619
# [20] = Streptococcus mitis, Cipro^R S. mitis 938
# [21] = Staphylococcus epidermidis, trovafloxacin-resistant methicillin-resistant S. epidermidis (MRSE) 110, 18 hrs at 37° C, read-out: MICs, Trova-Resist MRSE 110
# [22] = vancomycin-resistant Enterococcus faecium (VRE) 336, 18 hrs at 37° C, read-out: MICs, VRE 336
smiles,measurement,setting,value
"COc1c(N2CCC(N)C(C)(C)C2)c(F)cc2c(=O)c(C(=O)O)cn(C3CC3)c12.Cl (racemic) [Compound 18, (±)-1-Cyclopropyl-6-fluoro-1,4-dihydro-8-methoxy-7-(4-amino-3,3-dimethyl-1-piperidinyl)-4-oxo-quinoline-3-carboxylic acid hydrochloride]",MIC,[1]; [10],0.8 µg/mL
same,MIC,[1]; [11],0.8 µg/mL
same,MIC,[2]; [12],0.4 µg/mL
same,MIC,[2]; [13],0.4 µg/mL
same,ED50,[3],30 mg/kg
same,"Cytotoxic concentration, J 744 Macrophage",[4],>1000 µg/mL
same,"Cytotoxic concentration, V 79 CHL",[5],>1000 µg/mL
"Cc1c(N2CCC(O)C(C)(C)C2)c(F)cc2c(=O)c(C(=O)O)cn(C3CC3)c12 (racemic) [Compound 95, (±)-1-Cyclopropyl-6-fluoro-8-methyl-7-(4-hydroxy-3,3-dimethyl-1-piperidinyl)-1,4-dihydro-4-oxo-quinoline-3-carboxylic acid]",MIC,[6]; [14],0.05 µg/mL
same,MIC,[6]; [15],0.2 µg/mL
same,MIC,[6]; [16],3.12 µg/mL
same,MIC,[6]; [17],0.025 µg/mL
same,MIC,[6]; [18],0.003 µg/mL
same,MIC,[6]; [19],0.025 µg/mL
same,MIC,[1]; Cipro^R S. sanguis 941,0.4 µg/mL
same,MIC,[1]; [10],0.2 µg/mL
same,MIC,[1]; [20],0.4 µg/mL
same,MIC,[1]; [11],0.8 µg/mL
same,MIC,[7]; [21],0.4 µg/mL
same,MIC,[7]; [22],3.12 µg/mL
same,"MICs, MRSA 5076 + efflux inhibitor reserpine",[8]; MRSA 5076 with efflux inhibitor reserpine,0.2 µg/mL
same,MIC,[8],0.003 µg/mL
same,"Cytotoxic concentration, J 744 Macrophage",[4],>1000 µg/mL
same,"Cytotoxic concentration, V 79 CHL",[5],>1000 µg/mL
"Cc1c(N2CC[C@H](O)[C@H](C)C2)c(F)cc2c(=O)c(C(=O)O)cn(C3CC3)c12 (relative stereo) [Compound 93, cis-1-Cyclopropyl-6-fluoro-8-methyl-7-(4-hydroxy-3-methyl-1-piperidinyl)-1,4-dihydro-4-oxo-quinoline-3-carboxylic acid]",MIC,[6]; [14],0.05 µg/mL
same,MIC,[6]; [15],0.2 µg/mL
same,MIC,[6]; [16],3.12 µg/mL
same,MIC,[6]; [17],0.05 µg/mL
same,MIC,[6]; [18],0.003 µg/mL
same,MIC,[6]; [19],0.025 µg/mL
same,MIC,[1]; Cipro^R S. sanguis 941,0.4 µg/mL
same,MIC,[1]; [10],0.2 µg/mL
same,MIC,[1]; [20],0.4 µg/mL
same,MIC,[1]; [11],0.8 µg/mL
same,MIC,[7]; [21],0.4 µg/mL
same,MIC,[7]; [22],3.12 µg/mL
same,"Cytotoxic concentration, J 744 Macrophage",[4],>1000 µg/mL
same,"Cytotoxic concentration, V 79 CHL",[5],>1000 µg/mL
same,melting point,,206 to 210 °C
"Cc1c(N2CC[C@@H](O)[C@H](C)C2)c(F)cc2c(=O)c(C(=O)O)cn(C3CC3)c12 (relative stereo) [Compound 94, trans-1-Cyclopropyl-6-fluoro-8-methyl-7-(4-hydroxy-3-methyl-1-piperidinyl)-1,4-dihydro-4-oxo-quinoline-3-carboxylic acid]",MIC,[6]; [14],0.1 µg/mL
same,MIC,[6]; [15],0.2 µg/mL
same,MIC,[6]; [16],3.12 µg/mL
same,MIC,[6]; [17],0.025 µg/mL
same,MIC,[6]; [18],0.003 µg/mL
same,MIC,[6]; [19],0.025 µg/mL
same,MIC,[1]; Cipro^R S. sanguis 941,0.4 µg/mL
same,MIC,[1]; [10],0.2 µg/mL
same,MIC,[1]; [20],0.4 µg/mL
same,MIC,[1]; [11],0.8 µg/mL
same,MIC,[7]; [21],0.4 µg/mL
same,MIC,[7]; [22],3.12 µg/mL
same,"Cytotoxic concentration, J 744 Macrophage",[4],>1000 µg/mL
same,"Cytotoxic concentration, V 79 CHL",[5],>1000 µg/mL
"Cc1c(N2CC[C@H](N)[C@H](C)C2)c(F)cc2c(=O)c(C(=O)O)cn(C3CC3)c12.Cl (relative stereo) [Compound 100, cis-1-Cyclopropyl-6-fluoro-1,4-dihydro-8-methyl-7-(4-amino-3-methyl-1-piperidinyl)-4-oxo-quinoline-3-carboxylic acid hydrochloride]",MIC,[6]; [14],0.1 µg/mL
same,MIC,[6]; [15],0.0012 µg/mL
same,MIC,[6]; [16],3.12 µg/mL
same,MIC,[6]; [17],0.025 µg/mL
same,MIC,[6]; [18],0.025 µg/mL
same,MIC,[6]; [19],0.05 µg/mL
same,MIC,[1]; Cipro^R S. sanguis 941,3.12 µg/mL
same,MIC,[1]; [10],1.56 µg/mL
same,MIC,[1]; [20],1.56 µg/mL
same,MIC,[1]; [11],1.56 µg/mL
same,ED50,[3],30 mg/kg
same,"Cytotoxic concentration, J 744 Macrophage",[4],1000 µg/mL
same,"Cytotoxic concentration, V 79 CHL",[5],125 µg/mL
same,melting point,,255 to 260 °C
"Cc1c(N2CCC(N)C(C)(C)C2)c(F)cc2c(=O)c(C(=O)O)cn(C3CC3)c12.Cl (single isomer, unassigned; (-)) [Compound 110, (−)-1-Cyclopropyl-6-fluoro-1,4-dihydro-8-methyl-7-(4-amino-3,3-dimethyl-1-piperidinyl)-4-oxo-quinoline-3-carboxylic acid hydrochloride]",MICs,"[6]; E. coli ATCC 25922, hydrochloride",0.025 µg/mL
same,MICs,"[6]; E. faecalis ATCC 29212, hydrochloride",0.05 µg/mL
same,MICs,[6]; MSSA ATCC 25923,0.025 µg/mL
same,MICs,"[6]; S. pneumoniae ATCC 49619, hydrochloride",0.025 µg/mL
same,MICs,"[1]; Cipro^R S. sanguis 941, hydrochloride",1.56 µg/mL
same,MIC,[8],0.05 µg/mL
same,ED50,[3],20 mg/kg
same,"Cytotoxic concentration, J 744 Macrophage",[4]; hydrochloride,1000 µg/mL
same,"Cytotoxic concentration, V 79 CHL",[5]; hydrochloride,250 µg/mL
same,melting point,,300 °C
"COc1c(N2C[C@@H]3CCCN[C@@H]3C2)c(F)cc2c(=O)c(C(=O)O)cn(C3CC3)c12 [Moxifloxacin, reference compound]",MIC,[6]; [14],0.2 µg/mL
same,MIC,[6]; [15],0.05 µg/mL
same,MIC,[6]; [17],0.4 µg/mL
same,MIC,[6]; [18],0.05 µg/mL
same,MIC,[6]; [19],0.2 µg/mL
same,MIC,[2]; [12],0.4 µg/mL
same,ED50,[3],> 100 mg/kg
N[C@@H]1[C@H]2CN(c3nc4c(cc3F)c(=O)c(C(=O)O)cn4-c3ccc(F)cc3F)C[C@@H]12 [Trovafloxacin],MIC,[2]; [12],0.4 µg/mL
same,MIC,[2]; [13],50 µg/mL
same,"Cytotoxic concentration, J 744 Macrophage",[4],500 µg/mL
C[C@@H]1CN(c2c(F)c(N)c3c(=O)c(C(=O)O)cn(C4CC4)c3c2F)C[C@H](C)N1 [sparfloxacin],phototoxic dose,[9],25 mg/kg
